In publication PMC6982702, “Extensive Structure Modification on Luteolin-Cinnamic Acid Conjugates Leading to BACE1 Inhibitors with Optimal Pharmacological Properties” (Molecules, 2019):
Several values for one entry are separate records, joined by “and”; a condition that tells them apart may be missing. Identical values can stand only once. Like-named read-outs stand apart in the source and are kept apart here.

Tests used:
[1] = biological target: T1, BACE1 (Homo sapiens, UniProt P56817); experiment: In vitro BACE1 FRET enzyme assay; assay type: biochemical; details: for inhibition at 10 µM: read-out: Inhibition Rate at 10 μM (%); for selectivity on BACE1 over BACE2 and renin: from IC50 values of Table 6
T1 construct: purchased PanVera Co. (Invitrogen, USA)
T1 sequence (P56817 46-501): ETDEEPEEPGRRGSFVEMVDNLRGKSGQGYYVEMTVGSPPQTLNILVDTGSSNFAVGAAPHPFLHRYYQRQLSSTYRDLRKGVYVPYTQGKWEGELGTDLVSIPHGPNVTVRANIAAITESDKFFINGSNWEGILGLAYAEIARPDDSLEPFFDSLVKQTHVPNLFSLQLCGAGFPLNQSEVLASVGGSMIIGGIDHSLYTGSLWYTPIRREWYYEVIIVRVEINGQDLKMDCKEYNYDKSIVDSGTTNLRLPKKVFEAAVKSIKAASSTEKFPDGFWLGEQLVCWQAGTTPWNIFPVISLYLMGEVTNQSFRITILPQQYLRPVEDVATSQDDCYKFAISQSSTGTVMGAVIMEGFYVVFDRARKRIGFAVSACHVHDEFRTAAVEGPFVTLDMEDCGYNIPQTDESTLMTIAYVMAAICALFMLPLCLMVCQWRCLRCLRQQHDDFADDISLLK
Description: The BACE1 FRET assay kit was purchased from the PanVera Co. (Invitrogen, USA). The assay was carried out according to the supplied manual with modifications. […] The fluorescence intensity was measured with a TECAN infinite 200 microplate reader for 60 min at 25 °C in the dark. […] The percent inhibition (%) was obtained by the following equation: Inhibition % = (1 −SS/SC) × 100%, where SC is the slope of fluorescence change of the control (enzyme, buffer, and substrate) during 60 min, and SS is the slope of fluorescence change of the tested samples (enzyme, sample solution, and substrate) during 60 min of measurement. IC50 values were calculated from the nonlinear curve fitting of percentage inhibition against inhibitor concentration using Prism 3.0 software (GraphPad Software, San Diego, CA, USA).

[2] = MTT cytotoxicity assay; assay type: cell-based; details: human, 24 h exposure
Description: It is crucial for the BACE1 inhibitors to exert their activities at sub-toxic concentration, and thus their cytotoxicity was assessed in HEK293 cells by 3-[4,5-dimethylthiazol-2-yl]-2,5-diphenyl-tetrazolium bromide (MTT) assays (Table 5). […] Unfortunately, there was no obvious relationship between the structures and their cytotoxicity.
The cytotoxicity was examined by using 3-[4,5-dimethylthiazol-2-yl]-2,5-diphenyl-tetrazolium bromide (MTT) assay. HEK293T cells were seeded with complete DMEM into 96-well plates ([…], 100 µL/well), incubated at 37 °C in a humidified atmosphere with 5% CO2 for 24 h. All the compounds were diluted with the phenol red-free DMEM at a specific concentration. After 24 h of exposure to different concentrations of compound, the supernatant was removed and then 20% (v/v) MTT (5 mg/mL) diluted with fresh culture medium was added into each well and incubated for 4 h. Cells were lysed with 100 μL dimethyl sulfoxide (DMSO) and shaken for 10 min at room temperature. The absorbance in each well was detected at a wavelength of 490 nm using a Universal Microplate Reader (ELX 800 lv, BIO-TEK Instruments, Inc., Winooski, VT, USA).

[3] = system: Aβ-38, Aβ-40, Aβ-42 in HEK293 cells stably overexpressing human APP695; experiment: Inhibition of Aβ production in APP overexpressed cells (V-Plex Aβ Peptide Panel immunoassay); assay type: cell-based; details: for Aβ-42 levels / Aβ levels: DMSO = 100%; for Aβ levels: higher concentrations (10, 25, and 50 µM), 23 h
Description: To assess the cellular BACE1 inhibitory activity of the conjugates, 7a–d, 7i, and 7k were incubated in APP overexpressing HEK293 cells and their inhibition on the three main Aβ species Aβ-38, Aβ-40, and Aβ-42—the main amyloidogenic peptides produced by BACE1 cleavage of APP peptide—was measured by an ELISA-like immunoassay method. Aβ levels were normalized to the protein concentration in the lysate in order to rule out differences in total cell number per well of the culture plate. Additionally, the normalized Aβ level was set to 100% for the DMSO-treated control.
HEK293 cells stably overexpressing human APP695 were plated in a poly-D-lysine-coated 96-well plates and grown to a density of 80–90%. Compounds were dissolved in DMSO to make a 10 mM stock solution and diluted in DMEM complete medium to the final concentrations: 0.1, 1.0, 5.0, 10.0, 25.0, and 50.0 µM. DMSO was used at a 1:200 dilution as a negative control and a commercially available BACE1 inhibitor (C3, also known as BACE inhibitor IV) as a positive control. After 23 h of incubation, the cell supernatants were directly used for measurement in the V-Plex Aβ Peptide Panel 1 (6E10) Kit from Meso Scale Diagnostics (Rockville, MD, USA) for measuring Aβ38, −40, and −42 simultaneously. Cells were washed with PBS and lysed in Triton X100 lysis buffer for subsequent protein concentration (BCA) measurement.

[4] = biological target: T1, BACE1; experiment: Kinetic analysis of BACE1 inhibition (Dixon plot); assay type: biochemical; details: for Ki: BACE1 substrate 250, 500, 750 nM
Description: The Dixon plot was used to determine the kinetics of 4l, 7c, and 7k inhibiting BACE1.
The Dixon plot is a graphical method (plot of 1/enzyme velocity (1/V) against inhibitor concentration (I)) for determination of the type of enzyme inhibition, which was used to determine the dissociation or inhibition constant (Ki) for the enzyme inhibitor complex. The Dixon plots for BACE1 inhibition were obtained in the presence of various concentrations of BACE1 substrate (250, 500, 750 nM) and the concentrations of 4l, 7c, and 7k as follows: 0.1 µM, 0.5 µM, 1.0 µM. In this way, the inhibition constants (Ki) of 4e were determined by interpretation of Dixon plots, where the value of the x-axis represents −Ki when 1/V = 0. […]
The Dixon plot is a graphical method [plot of 1/enzyme velocity (1/V) against inhibitor
concentration (I)] for determination of the type of enzyme inhibition and was used to determine the
dissociation or inhibition constant (Ki) for the enzyme inhibitor complex (Cornish-Bowden, 1974).
The Dixon plots for BACE1 inhibition were obtained in the presence of various concentrations of […]
BACE1 substrate (250, 500, 750 nM) and the concentrations of 4l, 7c and 7k as follows: 0.1 µM, 0.5 µM,
1.0µM. In this way, the inhibition constants (Ki) of 4e were determined by in terpretation of Dixon
plots, w here t he value of the X -axis represents -Ki when 1/V=0.
Figure 3. Kinetic analysis of 4l.
Figure 4. Kinetic anal ysis of 7k. […]
The BACE1 FRET assay kit was purchased from the PanVera Co. (Invitroge, USA). The assay
was carried out according to the supplied manual with modifications. Briefly, assays were
performed in triplicate in 384-well black plates with a mixture of 5 μL of BACE1 (1.0 U/ml), 5 μL of
the substrate (750 nM, Rh-[…]- Quencherin 50 mM, ammonium bicarbonate), and 5 μL of
compound dissolved in 10% DMSO. The fluorescence intensity was measured with a TECAN
infinite 200 microplate reader for 60 min at 25 °C in the dark. The mixture was irradiated at 544 nm
and the emission intensity recorded at 590 nm. The percent inhibition (%) was obtained by the
following equation: Inhibition % = (1-SS/SC) × 100%, where SC is the slope of fluorescence change of
the control (enzyme, buffer, and substrate) during 60 min, and SS is the slope of fluorescence change
of the tested samples (enzyme, sample solution, and substrate) during 60 min of measurement. […]

[5] = biological target: T2, BACE2 (Homo sapiens, UniProt Q9Y5Z0); experiment: Enzyme selectivity: BACE2 inhibition; assay type: biochemical
T2 sequence (Q9Y5Z0 63-518): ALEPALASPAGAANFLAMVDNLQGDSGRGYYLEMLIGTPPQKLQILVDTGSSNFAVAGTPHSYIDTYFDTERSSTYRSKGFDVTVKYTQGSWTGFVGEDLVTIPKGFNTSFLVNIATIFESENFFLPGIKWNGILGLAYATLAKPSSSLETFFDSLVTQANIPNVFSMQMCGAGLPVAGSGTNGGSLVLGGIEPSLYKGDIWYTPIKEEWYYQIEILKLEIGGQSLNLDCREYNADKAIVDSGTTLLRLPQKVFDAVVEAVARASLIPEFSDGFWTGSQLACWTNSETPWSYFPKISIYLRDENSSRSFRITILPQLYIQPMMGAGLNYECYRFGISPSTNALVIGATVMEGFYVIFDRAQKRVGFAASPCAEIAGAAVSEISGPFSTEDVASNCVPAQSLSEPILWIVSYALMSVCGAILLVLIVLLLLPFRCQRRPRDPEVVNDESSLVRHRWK
Text: (§1) As BACE1 is a member of aspartyl protease family, its selective inhibition over other closely related proteases is required to avoid possible severe side effects.

[6] = biological target: T3, Renin (Homo sapiens, UniProt P00797); experiment: Enzyme selectivity: renin inhibition; assay type: biochemical
T3 sequence (P00797 67-406): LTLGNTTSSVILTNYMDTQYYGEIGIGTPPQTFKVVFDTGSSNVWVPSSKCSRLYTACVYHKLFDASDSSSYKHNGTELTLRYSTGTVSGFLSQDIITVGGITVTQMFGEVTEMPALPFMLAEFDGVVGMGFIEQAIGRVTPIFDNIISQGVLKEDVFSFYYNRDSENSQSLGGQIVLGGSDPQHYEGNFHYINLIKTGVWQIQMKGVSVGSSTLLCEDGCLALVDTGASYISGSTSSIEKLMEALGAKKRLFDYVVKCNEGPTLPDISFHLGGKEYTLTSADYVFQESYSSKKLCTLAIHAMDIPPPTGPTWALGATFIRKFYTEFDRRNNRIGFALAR
Text: as §1

[7] = biological target: T1, BACE1; design: method as in PMID 31557620; details: previous work ref 13; cited from earlier work
[8] = BACE1 FRET assay, 10 μM compound
[9] = HEK293 cells (method text: HEK293T)

inhibition at 10 µM [1, 8] [%]	IC50 ([1]; BACE1 FRET assay)	mode of BACE1 inhibition [4]	Ki [4] [µM]	IC50 [5] [µM]	IC50 [6] [µM]	SMILES	IC50 at 24 h [2, 9] [µM]	Aβ levels [3]	further results
28.9 ± 4.4						COc1ccc(/C=C/C(=O)OCCOc2cc(O)c3c(=O)cc(-c4ccc(O)c(O)c4)oc3c2)cc1 [Compound 7i, (E)-2-((2-(3,4-dihydroxyphenyl)-5-hydroxy-4-oxo-4H-chromen-7-yl)oxy)ethyl 3-(4-methoxyphenyl)acrylate]	3.94	did not reduce Aβ levels	Aβ-42 levels [3]: increased Aβ-42 levels
58.4 ± 10.2	2.47 ± 0.17 µM	mix-competitive mode	0.8			O=C(/C=C/c1ccc(O)cc1)OCCOc1cccc2c(=O)cc(-c3ccc(O)c(O)c3)oc12 [Compound 4l]			
59.5 ± 4.4	4.15 ± 1.97 µM			> 100	25.4	O=C(/C=C/c1ccc(O)cc1)NCCOc1cc(O)c2c(=O)cc(-c3ccc(O)c(O)c3)oc2c1 [Compound 8]	> 100		
64.8 ± 6	2.19 µM and 1.87 µM					O=C(/C=C/c1ccc(O)cc1)OCCOc1cc(O)c2c(=O)cc(-c3ccc(O)c(O)c3)oc2c1 [Compound 3]	62.4		mode of BACE1 inhibition [7]: non-competitive inhibitor
54.4 ± 3.5	0.15 µM	mix-competitive mode	0.32	> 100	> 100	O=C(/C=C/c1cccnc1)OCCOc1cc(O)c2c(=O)cc(-c3ccc(O)c(O)c3)oc2c1 [Compound 7k, (E)-2-((2-(3,4-dihydroxyphenyl)-5-hydroxy-4-oxo-4H-chromen-7-yl)oxy)ethyl 3-(pyridin-3-yl)acrylate]	> 100	did not reduce Aβ levels	enhancement of BACE1 inhibitory activity compared with the flavone segment 1 or conjugate 3 ([1]; from IC50): ~10 fold; selectivity on BACE1 over BACE2 and renin [1]: 2–3 orders of magnitude; Aβ-42 levels [3]: increased Aβ-42 levels
21.3 ± 7.1						O=C(/C=C/c1ccc(Cl)cc1)OCCOc1cc(O)c2c(=O)cc(-c3ccc(O)c(O)c3)oc2c1 [Compound 7f, (E)-2-((2-(3,4-dihydroxyphenyl)-5-hydroxy-4-oxo-4H-chromen-7-yl)oxy)ethyl 3-(4-chlorophenyl)acrylate]	9.97		
22.2 ± 7.1						O=C(/C=C/C1CCCCC1)OCCOc1cc(O)c2c(=O)cc(-c3ccc(O)c(O)c3)oc2c1 [Compound 7m, (E)-2-((2-(3,4-dihydroxyphenyl)-5-hydroxy-4-oxo-4H-chromen-7-yl)oxy)ethyl 3-cyclohexylacrylate]	14.4		

SMILES	inhibition at 10 µM [1, 8] [%]	IC50 ([1]; BACE1 FRET assay)	mode of BACE1 inhibition [4]	Ki [4] [µM]	IC50 [5] [µM]	IC50 [6] [µM]	IC50 at 24 h [2, 9] [µM]	Aβ levels [3]	further results
O=C(/C=C/c1cccc(O)c1)OCCOc1cc(O)c2c(=O)cc(-c3ccc(O)c(O)c3)oc2c1 [Compound 7c]	66.7 ± 8.3	1.44 ± 0.18 µM	non-competitive inhibitor	1.2	> 100	> 100			selectivity on BACE1 over BACE2 and renin [1]: 2–3 orders of magnitude; IC50 at 24 h ([2]; HEK293 cells (method text: HEK293T cells)): 90 µM; Aβ-42 level ([3]; 25 µM): obvious inhibition
O=c1cc(-c2ccc(O)c(O)c2)oc2cc(O)cc(O)c12 [Compound 1, luteolin]	68.6 ± 8.9						39.8	dose-dependently reduced Aβ levels	Inhibition Rate at 10 μM (%) ([1]; BACE1 FRET assay, 10 μM compound, 10 µM): 64.8 ± 6.0%
